Results from US20260152691A1, “METHOD AND COMPOUNDS FOR TREATING OR PREVENTING AUTOIMMUNE DISORDERS OR IMMUNE RESPONSES MODULATED BY THE EXPRESSION OF IDO1” (The Trustees of Princeton University, priority 2019, published 2026).
Values belong to the compound of their own block, whether it stands above or below them.

Legend:
myoglobin = molecular target: T1, myoglobin (Homo sapiens, UniProt P02144); assay: Heme protein selectivity by stopped-flow UV-vis spectrometry, myoglobin; format: biochemical; settings: pseudo-first-order conditions
T1 sequence (P02144 1-154): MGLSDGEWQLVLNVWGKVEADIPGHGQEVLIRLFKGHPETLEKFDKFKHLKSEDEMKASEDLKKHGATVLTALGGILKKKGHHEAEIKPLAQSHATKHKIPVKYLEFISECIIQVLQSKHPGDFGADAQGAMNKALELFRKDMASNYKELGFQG
Procedure: (§1) Since hydrogen sulfide and polysulfides are known to react with other heme proteins, the selectivity of 3 MI for IDO1 was examined by mixing the substituted indole compounds (such as 3 MI) with several other heme proteins and observing their reactions using stopped-flow UV-vis spectrometry.
(§2) The substituted indole compounds had no effect on catalase even at 250 µM, whereas the substituted indole compounds did appear to reduce myoglobin and hemoglobin, producing their oxygen-bound forms. The substituted indole compound was also able to reduce ferric cytochrome c to its distinctive ferrous form. The second-order rate constants of these reactions were determined under pseudo-first-order conditions giving 6.6×10^3, 1.6×10^4, and 2.7×10^5 M^−1 s^−1 for myoglobin, hemoglobin, and cytochrome c, respectively. […] Unlike myoglobin and hemoglobin, the oxy-form of IDO1 was not observed due to the relatively slow reduction of IDO1 by 3 MI.

IDO1 = IDO1 (Homo sapiens, UniProt P14902); assay: IDO1 activity assay, N-formylkynurenine absorbance at 321 nm; format: biochemical
IDO1, sequence (P14902 whole entry): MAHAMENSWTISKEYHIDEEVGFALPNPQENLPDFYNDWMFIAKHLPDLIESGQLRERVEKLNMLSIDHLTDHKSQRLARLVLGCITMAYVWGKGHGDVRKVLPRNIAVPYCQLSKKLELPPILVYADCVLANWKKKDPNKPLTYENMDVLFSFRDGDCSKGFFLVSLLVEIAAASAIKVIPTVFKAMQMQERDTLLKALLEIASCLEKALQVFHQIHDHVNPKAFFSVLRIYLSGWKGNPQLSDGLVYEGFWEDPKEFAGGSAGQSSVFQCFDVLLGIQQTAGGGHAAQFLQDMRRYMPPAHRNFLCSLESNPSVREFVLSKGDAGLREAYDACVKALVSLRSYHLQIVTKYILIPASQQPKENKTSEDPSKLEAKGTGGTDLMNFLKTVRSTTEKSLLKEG
Procedure: FIG. 2 is a graph showing the activity of IDO1 (500 nM) (204) with L-tryptophan (200 μM) as substrate glutathione alone (203), and also when activated by 3 MI (500 nM) with glutathione (5 mM) (201), and by 3 MI (500 nM) without glutathione (202).
FIG. 6 reflects a system involving IDO1 (50 nM), 0.1 mM L-tryptophan, and 5 mM glutathione in 100 mM sodium phosphate, pH 7.0 with <1 μM 6-chloro-5-fluoro-1H-indole-3-thiol.
The activity of the compounds was determined as follows. UV-vis spectra were recorded using a Hewlett-Packer 8453 diode array spectrophotometer. Activity assays were done at room temperature using 100 mM sodium phosphate, pH 7.0, with 500 nM IDO1 (ε404nm=172 mM^−1 cm^−1) and 50 μM L-tryptophan. These were initiated by addition of IDO1, and activity was monitored at 321 nm where product N-formylkynurenine absorbs (ε321nm=3750 M^−1 cm^−1).
The substituted indole compound was prepared daily in a 100 mM stock solution in dimethyl sulfoxide (DMSO), and this was serially diluted to maintain a consistent final concentration of 1% (v/v) DMSO in each assay. To maintain activity, 5 mM reduced glutathione was added to some of these from a 0.5 M stock solution. The substituted indole compound was generally tested from 100 nM to 10 μM. The ability of each compound to serve as a reducing substrate for IDO1 was fit using a Michaelis-Menten equation. […] Above 5 μM 3 MI, there was a steep inhibitory effect.

hemoglobin = hemoglobin (Homo sapiens, UniProt P68871+P69905); assay: Heme protein selectivity by stopped-flow UV-vis spectrometry, hemoglobin; format: biochemical; settings: pseudo-first-order conditions
hemoglobin, sequence (P69905 2-142 limits assumed): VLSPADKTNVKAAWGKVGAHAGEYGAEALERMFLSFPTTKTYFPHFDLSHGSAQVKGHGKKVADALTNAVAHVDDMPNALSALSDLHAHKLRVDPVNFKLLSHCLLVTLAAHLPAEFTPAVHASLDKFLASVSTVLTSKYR
hemoglobin, sequence (P68871 2-147 limits assumed): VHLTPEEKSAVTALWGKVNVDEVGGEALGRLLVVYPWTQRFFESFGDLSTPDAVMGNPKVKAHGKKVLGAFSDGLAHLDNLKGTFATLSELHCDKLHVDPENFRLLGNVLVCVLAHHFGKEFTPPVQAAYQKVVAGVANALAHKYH
Procedure: as §1, §2

ferric cytochrome c = ferric cytochrome c (Homo sapiens, UniProt P99999); assay: Heme protein selectivity by stopped-flow UV-vis spectrometry, cytochrome c; format: biochemical; settings: pseudo-first-order conditions
ferric cytochrome c, sequence (P99999 whole entry): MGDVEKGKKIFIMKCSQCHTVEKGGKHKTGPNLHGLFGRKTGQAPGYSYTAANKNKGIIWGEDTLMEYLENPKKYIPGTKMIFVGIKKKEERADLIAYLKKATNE
Procedure: as §1, §2

ferric-superoxo IDO1 = ferric-superoxo IDO1 (Homo sapiens, UniProt P14902); assay: Double-mixing stopped-flow spectrometry, reaction with ferric-superoxo IDO1; format: biochemical; settings: 3 MI kept reduced with 5 mM glutathione; estimated, double exponential fit
ferric-superoxo IDO1, sequence (P14902 whole entry): as the sequence (P14902 whole entry) above
Procedure: The nature of substituted indole compound-inhibition at high concentrations (>5 μM) was examined further with ferric-superoxo IDO1, the active tryptophan-oxidizing species. Ferric-superoxo IDO1 was generated using double-mixing stopped-flow spectrometry by mixing IDO1 prereduced with 2 mM sodium dithionite into aerobic buffer for 0.5 s. This ferric superoxo species was then mixed in the second push with 3 MI that had been maintained in the reduced state using 5 mM glutathione. 3 MI readily reacted with ferric-superoxo IDO1 to form ferric IDO1 without any observable intermediates. This was shown by a fast shift from the ferric-superoxo complex (Amax 415 nm) to the ferric (Amax 404 nm) that was completed nearly within the mixing time of the instrument (<10 ms) even at the lowest concentration of 3 MI useful for pseudo-first-order reaction conditions (where 3 MI must be at a large excess over IDO1). Following this fast conversion to ferric IDO1, there was a slower shift to the ferric 3 MI-bound complex as indicated by the Soret shifting to 424 nm (as in FIG. 4). To account for both reactions, these traces were fit using a double exponential expression.

ferric IDO1 = ferric IDO1 (Homo sapiens, UniProt P14902); assay: Stopped-flow UV-vis spectrometry of binding to ferric IDO1
ferric IDO1, sequence (P14902 whole entry): as above
Procedure: FIG. 3 is a graph showing the second-order rate constant of 3 MI binding to ferric IDO1 determined by stopped-flow spectrometry.
FIG. 4 is a graph showing stopped-flow UV-vis spectrometry of 3 MI (30 μM) binding to IDO1 (1.4 μM) over 0.2 s.
3-Mercaptoindole (3 MI) was seen to bind to IDO1 with a fast on-rate of 1.7×10^6 M^−1 s^−1 under pseudo-first-order conditions (See FIG. 3), producing a UV-vis spectrum (see FIG. 4) that has a Soret at 424 nm, a lower peak at 321 nm, and broad q-bands at 537 nm and a shoulder at about 575 nm. […] Note that although 3 MI is referred to here, similar results can be seen with other substituted indole compounds disclosed herein.

second-order rate constant of reduction of myoglobin (myoglobin): 6600 M⁻¹ s⁻¹ | concentration above which there was a steep inhibitory effect (IDO1): Above 5 μM | Km (IDO1; 500 nM IDO1, 50 μM L-tryptophan, 100 mM sodium phosphate pH 7.0, room temperature, Michaelis-Menten fit, read-out: Km of activation): 2.2 ± 0.7 µM | IDO1 activity with reduced glutathione added (IDO1; 5 mM reduced glutathione (FIG. 2, 201)): sustained 3 MI-induced IDO1 activity | time after which the initial burst of IDO1 activity leveled off (IDO1; 3 MI without glutathione (FIG. 2, 202)): 500 s | second-order rate constant of reduction of hemoglobin (hemoglobin): 16000 M⁻¹ s⁻¹ | second-order rate constant of reduction of cytochrome c (ferric cytochrome c): 270000 M⁻¹ s⁻¹ | second-order rate constant of initial reaction with ferric-superoxo IDO1 (ferric-superoxo IDO1): > 10^7 M^−1 s^−1 | Kd of binding to IDO1 (ferric IDO1; complete conversion to bound IDO1 at micromolar concentrations of 3 MI): submicromolar
SMILES: Sc1c[nH]c2ccccc12 [3 MI, 3-Mercaptoindole]

on-rate (second-order rate constant) of binding to IDO1 (ferric IDO1; pseudo-first-order conditions, stopped-flow): 1.7e+06 M⁻¹ s⁻¹
SMILES: Sc1c[nH]c2ccccc12 [3-Mercaptoindole (3 MI)]

IDO1 activity, N-formylkynurenine absorbance at 321 nm over time (FIG. 6) (IDO1; IDO1 50 nM, 0.1 mM L-tryptophan, 5 mM glutathione, 100 mM sodium phosphate pH 7.0, <1 μM compound, background subtracted): increase in absorbance
SMILES: Fc1cc2c(S)c[nH]c2cc1Cl [6-chloro-5-fluoro-1H-indole-3-thiol]
